Assay results taken from patent US20150307938A1, “METHOD TO IDENTIFY A NOVEL CLASS OF IMMUNOLOGIC ADJUVANTS” (Lancell, L.L.C., priority 2011, published 2015).

Columns and labels:
skin = details: in vivo
[1] = Estimate of maximum absorbed dose from transdermal transport rate of DBP on human skin in vivo; details: from known transdermal transport rate on human skin in vivo
OVA = assay: Immune response to intradermal peptide (SIINFEKL) or protein (OVA) antigen, also alum-adsorbed OVA, with topical DBP; format: in vivo, mice
Description: Topical DBP induced a 16-fold increase in the IgG1 Ab response to OVA adsorbed to alum and increased the IgG2c response 26-fold.

[2] = tested on: Murine Skin Dendritic Cells; assay: Activation of murine skin dendritic cells by DBP vs. DBlT (DC per lymph node, CD86); format: in vivo; details: topical treatment
tumor = tested on: tumor; set-up: species or system mice; details: mouse, in vivo
Fluzone [3] = tested on: Fluzone; set-up: species or system mice; details: mouse, in vivo
Fluzone [4] = tested on: Fluzone; set-up: species or system C57BL/6 mice; details: mouse, in vivo

With `CCCCOC(=O)c1ccccc1C(=O)OCCCC` [DBP, dibutylphthalate] the “histologic evidence of contact hypersensitivity” value (skin) was “no histologic evidence of contact hypersensitivity”, the “maximum absorbed dose from topical use as an adjuvant, vs LOEL in pregnant rats” value [1] was “five logs lower than the LOEL” and the “maximum absorbed dose from topical use as an adjuvant, vs amount ingested daily” value [1] was “no higher than the amount we ingest daily”. The “T cell and antibody responses” value (OVA; DBP on skin of mice injected intradermally with adjuvant-free SIINFEKL or OVA) was “dramatic increase”, the survival of anaphylaxis (OVA; high dose of alum-adsorbed OVA plus topical DBP, 60% succumbed without DBP) was “all of the mice survived” and the “increase in the IgG1 Ab response to OVA adsorbed to alum” value (OVA; topical DBP) was 16 fold. The “increase in the IgG2c response to OVA adsorbed to alum” value (OVA; topical DBP) was 26 fold, the “MFI CD86” value [2] was 618 (95) and the tumor-specific immunity (tumor) was “Protective and therapeutic tumor-specific immunity were induced”. For the same molecule, the “IgA Ab in bronchoalveolar lavage” value (Fluzone [3]) was “highly significantly increased”, the “IgA Ab in bronchoalveolar lavage, persistence” value (Fluzone [3]) was “remained undiminished” and the “Serum antibodies of all IgG isotypes” value (Fluzone [3]) was “highly significantly increased”. The “HAI titer / adjuvant effect with the same dose of Fluzone” value (Fluzone [4]) was “majorly improved”.
